Earlier results in patent US20050221347A1, “Inhibitors of binding between proteins and macromolecular ligands” (Thrasos, Inc., priority 1999, published 2005).

Molecular target: alpha subunit of the interleukin-2 receptor (Homo sapiens, UniProt P60568)
Sequence (P60568 21-153): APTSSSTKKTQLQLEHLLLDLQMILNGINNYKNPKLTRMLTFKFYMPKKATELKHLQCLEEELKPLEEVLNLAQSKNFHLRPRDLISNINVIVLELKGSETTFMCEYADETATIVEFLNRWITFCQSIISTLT

In the case of COC(=O)[C@H](Cc1ccc(C#Cc2ccccc2)cc1)NC(=O)C[C@H]1CCCN(C(=N)N)C1 [Structural Formula (I)], the Kd (binding to the alpha subunit of the interleukin-2 receptor, described in Tilley et al., J. Am. Chem. Soc 119:7589 (1997)) is given as roughly 3 µM and the “inhibition of binding of interleukin 2 to the interleukin-2 receptor” value (result in words, Tilley et al. 1997) is given as “inhibits the binding of interleukin 2”.
